{
  "source": "paper PMC5020499",
  "about": "“Crystal structures of archaeal 2-oxoacid:ferredoxin oxidoreductases from Sulfolobus tokodaii” (Scientific Reports, 2016)",
  "target": "T1, StOFOR2 (Sulfurisphaera tokodaii, UniProt Q96XT2+Q96XT4)",
  "T1 construct": "gene ST2435; recombinant in E. coli C43(DE3), genes from S. tokodaii genomic DNA in pOFORAB (pET-17b based), untagged; (ab)2 heterotetramer with TPP, Mg2+, [4Fe-4S]",
  "T1 sequence (Q96XT2 whole entry)": "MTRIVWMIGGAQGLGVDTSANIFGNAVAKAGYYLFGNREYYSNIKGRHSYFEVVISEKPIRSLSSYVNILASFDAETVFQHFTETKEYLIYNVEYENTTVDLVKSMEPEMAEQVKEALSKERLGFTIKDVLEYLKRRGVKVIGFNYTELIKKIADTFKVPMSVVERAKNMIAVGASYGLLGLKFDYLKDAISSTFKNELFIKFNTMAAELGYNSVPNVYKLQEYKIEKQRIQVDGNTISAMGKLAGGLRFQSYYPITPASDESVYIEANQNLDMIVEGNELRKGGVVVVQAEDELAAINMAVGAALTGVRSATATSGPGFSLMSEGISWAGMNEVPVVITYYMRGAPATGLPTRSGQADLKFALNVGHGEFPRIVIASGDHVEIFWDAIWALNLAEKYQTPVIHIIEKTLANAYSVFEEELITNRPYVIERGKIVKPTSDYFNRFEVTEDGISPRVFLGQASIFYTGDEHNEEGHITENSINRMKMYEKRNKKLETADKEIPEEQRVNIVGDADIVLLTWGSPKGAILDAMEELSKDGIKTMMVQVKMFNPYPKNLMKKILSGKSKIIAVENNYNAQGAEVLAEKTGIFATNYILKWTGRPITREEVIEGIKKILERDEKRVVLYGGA",
  "T1 sequence (Q96XT4 whole entry)": "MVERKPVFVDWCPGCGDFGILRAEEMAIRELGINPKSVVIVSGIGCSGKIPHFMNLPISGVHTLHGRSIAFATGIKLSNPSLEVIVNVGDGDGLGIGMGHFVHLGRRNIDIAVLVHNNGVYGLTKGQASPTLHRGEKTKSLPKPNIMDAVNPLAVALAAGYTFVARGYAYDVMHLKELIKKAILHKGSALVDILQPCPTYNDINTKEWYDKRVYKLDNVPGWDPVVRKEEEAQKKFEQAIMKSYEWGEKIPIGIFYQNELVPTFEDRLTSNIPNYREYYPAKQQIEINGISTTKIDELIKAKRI",
  "assay": "X-ray crystal structure, […] Å",
  "type": "binding",
  "conditions": "crystal soaked with 50 mM pyruvate for 30 min; active site, unreacted pyruvate",
  "data": [
    {"smiles": "CC(=O)C(=O)O", "note": "[pyruvate]", "values": [
      {"measurement": "X-ray crystal structure, 2.2 Å", "result": "we observed a separate density peak corresponding to the approximate size and shape of an unreacted pyruvate"}
    ]}
  ]
}
